Results from article PMC3298469, “A selective and potent CXCR3 antagonist SCH 546738 attenuates the development of autoimmune diseases and delays graft rejection” (BMC Immunology, 2012).

How the values were obtained:
C57BL/6 mice = assay: mouse experimental autoimmune encephalomyelitis (MOG35-55); type: in vivo
Description: Female C57BL/6 mice were purchased from Jackson Laboratory (Bar Harbor, ME). For immunization, 150 μg MOG35-55 peptide prepared by Princeton Biomolecules (Langhorne, PA, USA) and 300 μg killed Mycobacterium tuberculosis (Difco, Detroit, MI) were mixed in CFA (Sigma-Aldrich, St Louis, MO, USA) and injected s.c. in two 50-μl injections over the flanks on day 1. Also, 200 ng of pertussis toxin (Sigma-Aldrich, St Louis, MO) was injected i.v. on days 0 and 2. The compound was administered orally twice daily. Dosing with the compound started at day 0, 24 h prior to MOG35-55 immunization (day 1). Mice were monitored daily and assessed for clinical signs of disease in a blinded fashion according to the following criteria: 0, no signs of disease; 1, tail paralysis; 2, limp tail and hind limb weakness; 3, hind limb paralysis; 4, hind limb plus forelimb paralysis; and 5, moribund or dead. Cumulative clinical scores were calculated by adding daily scores from the day of immunization until the end of the experiment. Mean clinical scores at separate days and mean maximal scores were calculated by adding the scores of individual mice and dividing with the number of mice in each group, including mice not developing signs of EAE. […]

male B10.RIII mice = assay: mouse collagen-induced arthritis (disease score and paw histopathology); type: in vivo
Description: Briefly, 12-week-old male B10.RIII mice (Jackson Laboratories, Bar Harbor, ME) were immunized intradermally at five sites with bovine type II collagen (Elastin Products, Owensville, MO) emulsified with an equal volume of complete Freund's adjuvant (CFA). CFA was comprised of a mixture of incomplete Freund's adjuvant (Difco, Detroit, MI) and heat-killed, freeze-dried Mycobacteria tuberculosis (Ministry of Agriculture, Fisheries & Food, Surrey, England). Each mouse received 300 µg/ml bovine type II collagen and 0.5 mg/ml complete Freund's adjuvant. Mice were boosted intraperitoneally with 100 µg of bovine type II collagen on day 20. Disease progression was monitored by a standardized visual scoring system with a scale from 0 to 12 reflecting the degree of swelling/redness of each paw (maximal score 3 per paw) and the number of paws (maximal 4) involved per individual animal.
After euthanasia, front and hind paws of the animals were dissected and fixed by immersion in 10% phosphate-buffered formalin before decalcification. Following decalcification with Cal-Rite (Richard Allen Scientific, Kalamazoo, MI), formalin fixed tissues were processed and sectioned at 5µm. Paraffin sections were stained with Hematoxylin and Eosin (H&E). […] The changes in joint structures, including cartilage destruction, bone erosion/remodelling and pannus formation were scored as follows: 0 = Normal, 1 = Minimal, 2 = Mild, 3 = Moderate, 4 = Marked, 5 = Severe. A grade of 5.5 was also added to address full-thickness cartilage breach. Cellular infiltrates and inflammation in animal joints were scored as the following: 0 = Normal, 1 = Minimal, 2 = Mild, 3 = Moderate, 4 = Marked.
Sixteen days later which was 4 days prior to receiving a BC II boost (day -4); mice were randomized into treatment groups with approximately 10% of the animals in each group having developed at least one swollen paw. Oral twice daily treatment with SCH 546738 was initiated at this time (day -4) and continued through day 9, with a BC II antigen boost on day 0.
SCH 546738 in 0.4% methylcellulose was administered orally twice daily at 3, 10 and 40 mg/kg (mpk). Dosing was initiated 16 days (day -4) postimmunization and continued through day 9.
Paws collected at day 9 from the vehicle (0.4% methylcellulose) and 40 mpk SCH 546738 groups of two independent experiments were analyzed by histopathology.

CXCR3 = target: T1, CXCR3 (Homo sapiens, UniProt P49682); assay: competition binding analysis using 35S-SCH 535390 as tracer (SPA); design: expressed in transfected cells; host or cells: mouse pro-B Ba/F3 cells (vector pME18Sneo), membrane preparation; conditions: competition with 35S-SCH 535390 tracer; multiple experiments; read-out: affinity constant (Ki) of binding to human CXCR3 receptor
T1 sequence (P49682 1-368): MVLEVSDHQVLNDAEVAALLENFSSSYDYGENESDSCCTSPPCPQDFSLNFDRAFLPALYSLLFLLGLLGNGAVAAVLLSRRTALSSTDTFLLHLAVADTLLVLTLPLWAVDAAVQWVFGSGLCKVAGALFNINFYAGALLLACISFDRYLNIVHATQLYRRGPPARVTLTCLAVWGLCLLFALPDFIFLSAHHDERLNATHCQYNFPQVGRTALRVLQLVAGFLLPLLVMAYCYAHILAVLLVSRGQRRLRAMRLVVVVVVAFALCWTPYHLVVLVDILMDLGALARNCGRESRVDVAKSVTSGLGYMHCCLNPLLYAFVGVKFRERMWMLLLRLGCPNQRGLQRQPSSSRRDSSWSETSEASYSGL
Description: The cDNAs encoding human, mouse and rat CXCR3 were generated based on the published sequences: human (NM_001504), mouse (NM_009910), rat (NM_053415). The cDNAs for monkey and dog CXCR3 were cloned in the lab. All CXCR3 cDNAs were cloned into the mammalian expression vector pME18Sneo, a derivative of the SRα expression vector as described previously. IL-3-dependent mouse pro-B cells Ba/F3 were transfected to express CXCR3 of different species and cell membranes were prepared as described previously.
A scintillation proximity assay was used for radioligand competition binding assays as described previously with some modifications. For each assay point, 1 µg of membrane was preincubated for 1 hr with 300 µg wheat germ agglutinin (WGA) coated SPA beads (GE Healthcare Life Sciences) in the binding buffer (50 mM HEPES, 1 mM CaCl2, 5 mM MgCl2, 125 mM NaCl, 0.002% NaN3, 1.0% BSA) at room temperature. The beads were spun down, resuspended in the binding buffer and transferred to a 96-well Isoplate (Wallac, Gaithersburg, MD). The indicated concentrations of ^125I-hCXCL10, ^125I-hCXCL11 or ^35S-SCH 535390 with a series of titrations of SCH 546738 were added to start the reaction. After indicated reaction times at room temperature, the amount of radioactivity bound to the SPA beads was determined with a Wallac 1450 Microbeta counter (Wallac). […]

Lewis rats = assay: rat experimental autoimmune encephalomyelitis; type: in vivo; conditions: p.o. in 0.4% methylcellulose, varying doses; data not shown
Description: Male Lewis rats challenged by injection of 50 µl (30 mg) of a guinea pig spinal cord homogenate in CFA into one footpad. The animals were treated starting at day 0 and oral dosing continued throughout the 3-week disease course, with varying amounts of SCH 546738 in 0.4% methylcellulose (MC) p.o. Animals were scored for disease severity: 0, no clinical signs; 1, flaccid tail; 2, hind limb weakness; 3, complete hind limb paralysis; 4, complete hind limb paralysis, forelimb weakness or paralysis; 5, death.
For CIA and EAE models, unpaired t-tests were performed using GraphPad InStat version 5.0.1 for Windows 98, GraphPad Software, San Diego California USA (http://www.graphpad.com). Statistical significance was evaluated by comparing the vehicle-treated group with the experimental group using unpaired t-test. Differences were considered significant when p values were <0.05.
Experimental autoimmune encephalomyelitis (EAE) is an animal model for human MS and development of disease is dependent on T cell infiltration into the CNS. In the murine model of EAE, SCH 546738 was tested in combination with interferon-β (IFN-β), a current first-line therapeutic for the amelioration of relapsing-remitting MS. C57BL/6 mice were primed by intravenous injection of pertussis toxin on day 0 and day 2. […] Disease progression was monitored by a scoring system as described in Methods. […]

rat cardiac allograft = rat cardiac allograft transplant model (ACI to Lewis); type: in vivo; conditions: for mean survival time of the graft (MST): vehicle MST = 6 days
Description: Cardiac graft of ACI (RT1a) rats was heterotopically transplanted into the abdominal cavity of Lewis (RT1^l) recipients employing a microvascular surgical technique as described. The grafts were monitored daily by abdominal palpation, and the complete cessation of heart contraction was defined as graft rejection. SCH 546738 or 0.4% methylcellulose (vehicle) was orally administered at the indicated dose (0.2 ml) twice a day, starting on the day before transplantation until the day of graft rejection. To test whether SCH 546738 enhanced the effect of conventional immunosuppressive reagent, the recipients were received treatment with subtherapeutic dose of CsA for one week combined with treatment with SCH 546738. Graft survival was analyzed using the log-rank test. The parametric data were analyzed by Student t test (2-tailed) using GraphPad InStat version 5.0.1 for Windows 98, GraphPad Software, San Diego California USA (http://www.graphpad.com). p < 0.05 was considered statistically significant.
SCH 546738 was administered orally twice daily at 1, 5 and 15 mpk. […] Graft survival was analyzed using the log-rank test.

[1] = 40 mpk, paws collected on day 9

## CC[C@H]1CN(c2nc(N)c(C(N)=O)nc2Cl)CCN1C1CCN(Cc2ccc(Cl)cc2)CC1 [SCH 546738]
C57BL/6 mice; 30 mpk orally twice daily, alone, days 17 and 19
  effect on disease onset and severity: delayed disease onset and attenuated disease severity
C57BL/6 mice; SCH 546738 30 mpk p.o. twice daily combined with IFN-β 1700 ng i.m. daily, compared to either alone
  effect on disease onset and severity, combination treatment: significant additive effect
Male B10.RIII mice; 3 mpk oral twice daily
  effect on disease severity: no statistically significant effect
Male B10.RIII mice; 10 mpk oral twice daily, days 7 and 9
  effect on disease score: protected significantly
Male B10.RIII mice; 40 mpk oral twice daily, day -4 to day 9, days 4, 7 and 9
  effect on disease score: significant reduction of the disease score
Male B10.RIII mice; [1]
  leukocyte infiltration into the joint (histopathology score): significantly attenuated
  structural damage to the bone and cartilage (histopathology score): significantly attenuated
CXCR3
  Ki: 0.4 nM
Lewis rats
  effect on disease severity: reduced the severity of the disease in a dose-dependent manner
Rat cardiac allograft; 1 mpk oral twice daily
  mean survival time of the graft (MST): 11 days
Rat cardiac allograft; 5 mpk SCH 546738 twice daily in combination with 2.5 mpk cyclosporine
  rate of permanent engraftment: 100%
Rat cardiac allograft; 5 mpk oral twice daily
  mean survival time of the graft (MST): 14 days
Rat cardiac allograft; 15 mpk oral twice daily
  mean survival time of the graft (MST): 14.9 days
